In this assay the target is Ubiquitin carboxyl-terminal hydrolase 7 (Homo sapiens, UniProt Q93009). The assay can be described thus: Inhibition of human USP7 using Ub-AMC as substrate.

As usually defined, the IC50 is the concentration needed to halve the response being measured. Higher therefore signals weaker potency.

Sequence of Ubiquitin carboxyl-terminal hydrolase 7 (Q93009 whole entry): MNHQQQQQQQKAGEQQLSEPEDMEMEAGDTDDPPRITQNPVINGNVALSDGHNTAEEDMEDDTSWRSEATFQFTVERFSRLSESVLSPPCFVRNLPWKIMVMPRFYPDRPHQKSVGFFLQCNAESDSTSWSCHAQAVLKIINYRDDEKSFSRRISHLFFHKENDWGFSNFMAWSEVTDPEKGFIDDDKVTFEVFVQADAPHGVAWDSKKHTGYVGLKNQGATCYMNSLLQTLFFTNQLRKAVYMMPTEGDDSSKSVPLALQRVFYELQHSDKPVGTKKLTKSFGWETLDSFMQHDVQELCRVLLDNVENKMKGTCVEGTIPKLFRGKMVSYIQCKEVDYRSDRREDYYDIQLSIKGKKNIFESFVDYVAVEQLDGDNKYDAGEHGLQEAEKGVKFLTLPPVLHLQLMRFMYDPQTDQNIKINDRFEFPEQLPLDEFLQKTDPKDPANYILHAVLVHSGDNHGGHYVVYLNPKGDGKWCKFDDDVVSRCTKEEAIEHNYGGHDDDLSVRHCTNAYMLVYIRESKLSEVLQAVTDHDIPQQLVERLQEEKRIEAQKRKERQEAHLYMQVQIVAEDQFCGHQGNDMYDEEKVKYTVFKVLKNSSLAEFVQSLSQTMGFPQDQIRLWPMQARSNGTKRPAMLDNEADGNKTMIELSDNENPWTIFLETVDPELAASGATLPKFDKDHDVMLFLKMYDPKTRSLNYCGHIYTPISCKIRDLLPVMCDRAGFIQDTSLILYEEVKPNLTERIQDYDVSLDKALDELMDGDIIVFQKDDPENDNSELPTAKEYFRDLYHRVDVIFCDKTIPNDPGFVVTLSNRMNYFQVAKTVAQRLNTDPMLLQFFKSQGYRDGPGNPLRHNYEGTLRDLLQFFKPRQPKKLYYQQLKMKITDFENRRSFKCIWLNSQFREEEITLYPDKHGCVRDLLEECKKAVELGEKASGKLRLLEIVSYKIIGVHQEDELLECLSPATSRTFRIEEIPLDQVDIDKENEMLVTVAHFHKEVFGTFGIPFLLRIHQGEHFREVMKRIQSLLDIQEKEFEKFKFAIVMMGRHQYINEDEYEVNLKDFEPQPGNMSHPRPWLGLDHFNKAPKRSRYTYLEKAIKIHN

`C[C@H](CC(=O)N1CCC(O)(Cn2cnc3cc(NC(=O)CCN4CCN(C)CC4)ccc3c2=O)CC1)c1ccccc1` gave a 50% inhibitory concentration (IC50) of 90 nM.

The record behind these values is BindingDB's records for PubMed 32092586 (Zhengzhou University, 2020).
